According to article PMC12040169 (PLOS Biology, 2025):

Assay: in vitro
Settings: human, hela cells, % viability

Structure (SMILES): O=C(O)C[C@@H]1CCN(C(=O)C2CCCCC2)C[C@@H]1CCN1CCCCC1 [CBK288781]
- viability at 28.5 h, 10 µM: 90.1%

Structure (SMILES): COc1ccc(C(=O)N2CC[C@H]3CC(=O)N(CCNC(C)=O)CC[C@H]3C2)cc1 [CBK288784]
- viability at 28.5 h, 10 µM: 78.8%

Structure (SMILES): O=C1C[C@@H]2CCN(C(=O)Nc3cccc(C(F)(F)F)c3)C[C@@H]2CCN1CCc1c[nH]cn1 [CBK288786]
- viability at 28.5 h, 10 µM: 105%

Structure (SMILES): COc1cccc(NC(=O)N2CC[C@H]3CC(=O)N(c4ccccc4)CC[C@H]3C2)c1 [CBK288787]
- viability at 28.5 h, 10 µM: 95.4%

Structure (SMILES): CC(C)N1CC[C@H]2CN(C(=O)CCC(=O)O)CC[C@H]2CC1=O [CBK288789]
- viability at 28.5 h, 10 µM: 87.8%

Structure (SMILES): O=C1C[C@@H]2CCN(C(=O)COc3ccccc3)C[C@@H]2CCN1Cc1cccnc1 [CBK288793]
- viability at 28.5 h, 10 µM: 82%

Structure (SMILES): C=CCNC(=O)N1CC[C@H]2CC(=O)N(Cc3ccc4c(c3)OCO4)CC[C@H]2C1 [CBK288794]
- viability at 28.5 h, 10 µM: 97.8%

Structure (SMILES): COc1ccc(C(=O)N2CC[C@H]3CC(=O)N(CCN4CCNC4=O)CC[C@H]3C2)cc1 [CBK288795]
- viability at 28.5 h, 10 µM: 110%

Structure (SMILES): CC(C)(C)c1cc(C[C@H]2CNCC[C@H]2CC(=O)Nc2nccs2)no1 [CBK288798]
- viability at 28.5 h, 10 µM: 81%

Structure (SMILES): CC(C)(C)c1cc(C[C@H]2CNCC[C@H]2CC(=O)N2CCN(c3ccccn3)CC2)no1 [CBK288799]
- viability at 28.5 h, 10 µM: 87.4%

Structure (SMILES): O=C(C[C@@H]1CCNC[C@@H]1Cc1cc(-c2ccc(F)cc2)on1)Nc1ccccc1 [CBK288801]
- viability at 28.5 h, 10 µM: 96.4%

Structure (SMILES): CC(C)(C)NC(=O)C[C@@H]1CCNC[C@@H]1Cc1cc(-c2ccc(F)cc2)on1 [CBK288802]
- viability at 28.5 h, 10 µM: 99.2%

Structure (SMILES): Cc1nn(CCC#N)c(C)c1[C@@H]1C=C[C@@H](NS(=O)(=O)c2ccccc2)C1 [CBK288805]
- viability at 28.5 h, 10 µM: 91%

Structure (SMILES): Cc1nn(-c2cccc(Br)c2)c(C)c1[C@@H]1C=C[C@@H](NS(C)(=O)=O)C1 [CBK288806]
- viability at 28.5 h, 10 µM: 86.3%

Structure (SMILES): COc1ccc(CN[C@H]2[C@H](O)[C@@H](N3CCN(C(C)=O)CC3)[C@@H]3OC[C@H]2O3)cc1 [CBK288808]
- viability at 28.5 h, 10 µM: 96.9%

Structure (SMILES): CC(=O)N1CCN([C@H]2[C@@H]3OC[C@@H](O3)[C@@H](NC(=O)NC3CCCCC3)[C@@H]2O)CC1 [CBK288810]
- viability at 28.5 h, 10 µM: 101%

Structure (SMILES): O=C(Nc1cccc(C(F)(F)F)c1)N[C@H]1[C@H](O)[C@@H](Oc2ccccc2)[C@@H]2OC[C@H]1O2 [CBK288811]
- viability at 28.5 h, 10 µM: 106%

Structure (SMILES): C=CCNC(=O)N[C@H]1[C@H](O)[C@@H](Oc2ccccc2)[C@@H]2OC[C@H]1O2 [CBK288812]
- viability at 28.5 h, 10 µM: 90.5%

Structure (SMILES): COc1ccc(NC(=O)N[C@H]2[C@H](O)[C@@H](Sc3ccccc3)[C@@H]3OC[C@H]2O3)cc1 [CBK288813]
- viability at 28.5 h, 10 µM: 96.4%

Structure (SMILES): O[C@H]1[C@H](NCc2ccccn2)[C@H]2CO[C@H](O2)[C@@H]1N1CCC(Cc2ccccc2)CC1 [CBK288814]
- viability at 28.5 h, 10 µM: 87.2%

Structure (SMILES): CCNC(=O)N[C@H]1[C@H](O)[C@@H](N(CC)CC)[C@@H]2OC[C@H]1O2 [CBK288816]
- viability at 28.5 h, 10 µM: 113%

Structure (SMILES): COc1ccc(NC(=O)N[C@H]2[C@H](O)[C@@H](N3CCOCC3)[C@@H]3OC[C@H]2O3)cc1 [CBK288820]
- viability at 28.5 h, 10 µM: 101%

Structure (SMILES): O=C(NC1CCCCC1)N[C@H]1[C@H](O)[C@@H](N2CCN(c3ccccc3)CC2)[C@@H]2OC[C@H]1O2 [CBK288822]
- viability at 28.5 h, 10 µM: 95%

Structure (SMILES): CN1CCN([C@H]2[C@@H]3OC[C@@H](O3)[C@@H](NCc3ccc(CO)o3)[C@@H]2O)CC1 [CBK288823]
- viability at 28.5 h, 10 µM: 91.5%

Structure (SMILES): CN1CCN([C@H]2[C@@H]3OC[C@@H](O3)[C@@H](NCc3ccc(N(C)C)cc3)[C@@H]2O)CC1 [CBK288824]
- viability at 28.5 h, 10 µM: 109%

Structure (SMILES): O=C(Nc1ccc(F)cc1)N[C@H]1[C@H](O)[C@@H](N2CCCCC2)[C@@H]2OC[C@H]1O2 [CBK288826]
- viability at 28.5 h, 10 µM: 98.5%

Structure (SMILES): COc1ccc(CN[C@H]2[C@H](O)[C@@H](N3CCCC3)[C@@H]3OC[C@H]2O3)cc1 [CBK288827]
- viability at 28.5 h, 10 µM: 88.6%

Structure (SMILES): O=C(Nc1cccc(C(F)(F)F)c1)N[C@H]1[C@H](O)[C@@H](N2CCCC2)[C@@H]2OC[C@H]1O2 [CBK288828]
- viability at 28.5 h, 10 µM: 105%

Structure (SMILES): C=CCNC(=O)N[C@H]1[C@H](O)[C@@H](N2CCCC2)[C@@H]2OC[C@H]1O2 [CBK288829]
- viability at 28.5 h, 10 µM: 92.6%

Structure (SMILES): NC(=O)C1CCN([C@H]2[C@@H]3OC[C@@H](O3)[C@@H](NCc3ccc(F)cc3)[C@@H]2O)CC1 [CBK288830]
- viability at 28.5 h, 10 µM: 91.2%

Structure (SMILES): O=S(=O)(Cc1noc([C@@H]2C[C@@H](O)CN2Cc2ccc(F)cc2)n1)c1ccc(F)cc1 [CBK288831]
- viability at 28.5 h, 10 µM: 118%

Structure (SMILES): OCc1ccc(CN2C[C@H](O)C[C@H]2c2nc(-c3cnccn3)no2)o1 [CBK288832]
- viability at 28.5 h, 10 µM: 91.9%

Structure (SMILES): O=[N+]([O-])c1ccc(CN2C[C@H](O)C[C@H]2c2nc(-c3ccccc3)no2)cc1 [CBK288833]
- viability at 28.5 h, 10 µM: 108%

Structure (SMILES): COCc1cn(C[C@H]2CC3CCN2C[C@@H]3C(=O)NC2CC2)nn1 (some centres unmarked) [CBK288835]
- viability at 28.5 h, 10 µM: 98.6%

Structure (SMILES): O[C@H]1CN[C@H](c2nc(-c3ccc(OC(F)(F)F)cc3)no2)C1 [CBK288836]
- viability at 28.5 h, 10 µM: 112%

Structure (SMILES): Cc1cccc(-c2noc([C@@H]3C[C@@H](O)CN3Cc3ccccn3)n2)c1 [CBK288837]
- viability at 28.5 h, 10 µM: 98.2%

Structure (SMILES): Cc1ccc(S(=O)(=O)Cc2noc([C@@H]3C[C@@H](O)CN3CC3CCCCC3)n2)cc1 [CBK288841]
- viability at 28.5 h, 10 µM: 115%

Structure (SMILES): COc1ccc(-c2noc([C@@H]3C[C@@H](O)CN3C3CCOCC3)n2)cc1 [CBK288844]
- viability at 28.5 h, 10 µM: 83.7%

Structure (SMILES): CC(=O)N1CCC(N2C[C@H](O)C[C@H]2c2nc(-c3cccc([N+](=O)[O-])c3)no2)CC1 [CBK288846]
- viability at 28.5 h, 10 µM: 90.5%

Structure (SMILES): OCc1ccc(CN2C[C@H](O)C[C@H]2c2nc(-c3ccc(F)cc3)no2)o1 [CBK288848]
- viability at 28.5 h, 10 µM: 106%

Structure (SMILES): COc1ccccc1C(=O)N[C@H]1C[C@@H](c2nc(-c3cnccn3)no2)N(C)C1 [CBK288850]
- viability at 28.5 h, 10 µM: 96%

Structure (SMILES): CN1C[C@@H](NC(=O)Nc2ccccc2)C[C@H]1c1nc(-c2cnccn2)no1 [CBK288851]
- viability at 28.5 h, 10 µM: 87.5%

Structure (SMILES): COc1cccc(NC(=O)N[C@H]2C[C@@H](c3nc(-c4ccccn4)no3)N(C)C2)c1 [CBK288853]
- viability at 28.5 h, 10 µM: 108%

Structure (SMILES): CN1C[C@@H](NC(=O)c2ccc3c(c2)OCO3)C[C@H]1c1nc(-c2ccc(Cl)cc2)no1 [CBK288854]
- viability at 28.5 h, 10 µM: 90.6%

Structure (SMILES): CN1C[C@@H](NC(=O)Nc2cccc(C#N)c2)C[C@H]1c1nc(-c2ccncc2)no1 [CBK288856]
- viability at 28.5 h, 10 µM: 112%

Structure (SMILES): CN1C[C@@H](NC(=O)c2cccnc2)C[C@H]1c1nc(-c2cccnc2)no1 [CBK288857]
- viability at 28.5 h, 10 µM: 86.7%

Structure (SMILES): CN1C[C@@H](NC(=O)Nc2ccccc2)C[C@H]1c1nc(Cc2ccccc2)no1 [CBK288860]
- viability at 28.5 h, 10 µM: 85.2%

Structure (SMILES): N#Cc1cccc(CN2C[C@H](O)C[C@H]2c2nc(-c3ccc4c(c3)OCO4)no2)c1 [CBK288866]
- viability at 28.5 h, 10 µM: 90%

Structure (SMILES): O[C@@H]1C[C@@H](c2nc(-c3ccc4c(c3)OCO4)no2)N(Cc2cc3ccccc3o2)C1 [CBK288868]
- viability at 28.5 h, 10 µM: 83.9%

Structure (SMILES): CN1C[C@@H](NC(=O)c2ccc3c(c2)OCO3)C[C@H]1c1nc(-c2ccccc2)no1 [CBK288876]
- viability at 28.5 h, 10 µM: 108%

Structure (SMILES): CN1CCC(N2CCC[C@H]2c2nc(-c3ccnc(N4CCOCC4)c3)no2)CC1 [CBK288880]
- viability at 28.5 h, 10 µM: 94.4%

Structure (SMILES): CC(C)N1CCC[C@H]1c1nc(-c2ccc(N3CCN(C)CC3)nc2)no1 [CBK288881]
- viability at 28.5 h, 10 µM: 83.6%

Structure (SMILES): NC(=O)C1CCN(c2ccc(-c3noc([C@@H]4CCCN4Cc4cccnc4)n3)cn2)CC1 [CBK288882]
- viability at 28.5 h, 10 µM: 108%
